Measurements from ChEMBL document CHEMBL1201862, “PubChem BioAssay data set” (2004).
Values belong to the compound of their own block, whether it stands above or below them. Active and inactive are the calls of the source.

Key:
[1] = target: Ubiquitin carboxyl-terminal hydrolase BAP1 (Homo sapiens, UniProt Q92560); assay: inhibition of BAP1 ubiquitin hydrolase activity – biochemical, dose response (AID 714); assay type: functional
Estrogen receptor beta [2] = target: T1, Estrogen receptor beta (Homo sapiens, UniProt Q92731);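 also: recombinant ER-beta bound to coactivator SRC1 peptide in presence of estradiol agonist; inhibitors block coactivator peptide binding and lower the FRET signal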
Estrogen receptor beta [3] = target: T1, Estrogen receptor beta; assay: blockers of SRC-3 recruitment to ERβ – biochemical, ELISA, streptavidin-HRP readout, orthogonal assay, confirmation (AID 1060)
Protein Tat = Protein Tat (Human immunodeficiency virus type 1 group M subtype B (isolate HXB2)(HIV-1), UniProt P04608); assay type: functional;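 also: tat binding to TAR RNA read out by fluorescence polarization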
[4] = target: Luciferin 4-monooxygenase (Photinus pyralis, UniProt P08659); assay: inhibition of purified Photinus pyralis luciferase – biochemical, luminescence, dose response (AID 1891)
[5] = Luminescence Cell-Based Dose Confirmation HTS to Identify Inhibitors of Platelet Dense Granule Release. [Related pubchem assays: 1663 (Primary HTS), 1678 (Summary of Project)]; assay type: functional
[6] = Fluorescence Cell-Based Dose Response to Identify Inhibitors of Thrombin Receptor-Activating Peptide SFLLRN-Mediated P-Selectin Induction on Platelets. [Related pubchem assays: 1663 (Primary HTS), 1889 (retest at dose ), 1891 (counterscreen), 1678 (Project Summary)]; assay type: functional
Heat shock protein HSP90 = Heat shock protein HSP90 (Homo sapiens, UniProt P07900+P08238); assay: Hsp90 blockade concentration-response – dose response (AID 712); assay type: functional
Cytochrome P450 3A4 = Cytochrome P450 3A4 (Homo sapiens, UniProt P08684);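 also: CYP3A4 tested as one member of a cytochrome P450 panel screen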
[7] = Dd2 parasite growth inhibition in erythrocytes – SYBR Green, dry powder samples, set 9, dose response (AID 1159568); assay type: functional, cell-based
[8] = P. falciparum Dd2 growth inhibitors, dose response, SYBR Green, cherry-picked samples (AID 1159567); assay type: functional, cell-based
[9] = toxicity to human hepatoma HepG2 cells – cell-based, cherry-picked samples, cytotoxicity control, dose response (AID 1159577); assay type: functional
[10] = Dd2 parasite growth inhibition in erythrocytes – SYBR Green, dry powder samples, set 4, dose response (AID 1159572); assay type: functional, cell-based
[11] = growth inhibition of yeast DHODH-expressing 3D7 parasites – SYBR Green, dry powder samples, dose response (AID 1159570); assay type: functional, cell-based;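 also: parasite growth measured after 72 hours of compound exposure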
[12] = toxicity to human HepG2 hepatoma cells – cell-based, plate reader, dry powder samples, cytotoxicity control, dose response (AID 1159569); assay type: functional;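 also: inhibitor potency with signal falling toward the positive control level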
[13] = antimalarial activity against Dd2 parasites – SYBR Green fluorescence, erythrocytes, dry powder, set 2, dose response (AID 1159574); assay type: functional, cell-based
[14] = Dd2 malaria parasite growth inhibition potency – SYBR Green, dry powder samples, dose response (AID 1159566); assay type: functional, cell-based;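 also: potency for growth inhibition with lower SYBR green DNA signal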
[15] = growth inhibition of PfATP4-mutant resistant parasites – NITD609-resistant line, SYBR Green, dry powder, dose response (AID 1159571); assay type: functional, cell-based;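 also: parasites synchronized at ring stage by sorbitol before testing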
[16] = glucagon-like peptide-1 release potency in STC-1, concentration-response, half-maximal inhibitory concentration in the STC-1 line (AID 1117345); assay type: functional, cell-based
[17] = Potency on glucagon-like peptide 1 release, dose-response in NCI-H716 cell line, half maximal inhibitory concentration (AID 1117344); assay type: functional, cell-based

T1 sequence (Q92731 whole entry): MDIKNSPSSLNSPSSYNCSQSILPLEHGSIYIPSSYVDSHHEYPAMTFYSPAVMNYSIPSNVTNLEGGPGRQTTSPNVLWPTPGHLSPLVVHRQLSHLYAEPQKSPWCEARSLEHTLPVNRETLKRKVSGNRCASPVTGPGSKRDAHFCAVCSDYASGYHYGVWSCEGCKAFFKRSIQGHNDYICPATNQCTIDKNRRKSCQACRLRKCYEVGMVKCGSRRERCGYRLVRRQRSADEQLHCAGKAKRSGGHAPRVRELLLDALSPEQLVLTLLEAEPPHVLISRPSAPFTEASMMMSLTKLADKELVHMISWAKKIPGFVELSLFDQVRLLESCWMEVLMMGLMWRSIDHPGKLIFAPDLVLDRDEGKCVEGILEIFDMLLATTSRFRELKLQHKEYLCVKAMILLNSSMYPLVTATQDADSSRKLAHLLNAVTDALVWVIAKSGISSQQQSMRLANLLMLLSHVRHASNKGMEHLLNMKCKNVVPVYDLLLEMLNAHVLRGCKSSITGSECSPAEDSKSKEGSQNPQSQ
Chain of Ubiquitin carboxyl-terminal hydrolase BAP1 (Q92560 whole entry): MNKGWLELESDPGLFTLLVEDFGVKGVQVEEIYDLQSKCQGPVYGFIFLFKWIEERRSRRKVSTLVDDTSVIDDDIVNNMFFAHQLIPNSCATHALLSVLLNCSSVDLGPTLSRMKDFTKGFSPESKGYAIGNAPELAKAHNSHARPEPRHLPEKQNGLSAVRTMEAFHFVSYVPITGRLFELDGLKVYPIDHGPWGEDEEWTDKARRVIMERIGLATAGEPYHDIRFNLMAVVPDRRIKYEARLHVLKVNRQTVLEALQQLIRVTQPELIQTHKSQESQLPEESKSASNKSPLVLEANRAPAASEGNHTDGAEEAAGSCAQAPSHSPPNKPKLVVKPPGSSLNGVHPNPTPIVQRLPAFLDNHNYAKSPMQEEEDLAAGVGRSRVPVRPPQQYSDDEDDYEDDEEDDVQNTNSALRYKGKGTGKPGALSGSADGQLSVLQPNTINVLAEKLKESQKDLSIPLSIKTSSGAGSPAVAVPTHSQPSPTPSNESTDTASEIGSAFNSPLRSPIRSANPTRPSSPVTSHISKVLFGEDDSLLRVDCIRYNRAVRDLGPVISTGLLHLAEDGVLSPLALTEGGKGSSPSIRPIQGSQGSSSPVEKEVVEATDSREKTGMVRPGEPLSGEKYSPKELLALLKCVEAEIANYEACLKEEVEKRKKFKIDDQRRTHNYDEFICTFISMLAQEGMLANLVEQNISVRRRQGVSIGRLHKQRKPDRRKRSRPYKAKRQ
Chain of Cytochrome P450 3A4 (P08684 whole entry): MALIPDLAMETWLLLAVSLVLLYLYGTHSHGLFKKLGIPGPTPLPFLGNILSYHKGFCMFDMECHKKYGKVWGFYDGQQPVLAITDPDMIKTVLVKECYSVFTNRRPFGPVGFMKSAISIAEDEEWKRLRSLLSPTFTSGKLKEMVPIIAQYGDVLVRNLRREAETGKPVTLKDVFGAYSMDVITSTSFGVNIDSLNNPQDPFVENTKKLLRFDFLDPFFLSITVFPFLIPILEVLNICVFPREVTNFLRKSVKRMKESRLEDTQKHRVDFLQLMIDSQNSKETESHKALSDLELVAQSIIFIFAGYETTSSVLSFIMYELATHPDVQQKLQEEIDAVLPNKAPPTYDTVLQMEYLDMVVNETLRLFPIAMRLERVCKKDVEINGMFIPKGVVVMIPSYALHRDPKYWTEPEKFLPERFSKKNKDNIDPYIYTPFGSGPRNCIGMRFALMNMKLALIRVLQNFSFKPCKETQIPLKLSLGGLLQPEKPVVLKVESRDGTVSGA
Chain of Protein Tat (P04608 whole entry): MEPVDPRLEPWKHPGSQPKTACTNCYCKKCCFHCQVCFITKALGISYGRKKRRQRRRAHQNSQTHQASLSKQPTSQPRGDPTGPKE
Chain of Luciferin 4-monooxygenase (P08659 whole entry): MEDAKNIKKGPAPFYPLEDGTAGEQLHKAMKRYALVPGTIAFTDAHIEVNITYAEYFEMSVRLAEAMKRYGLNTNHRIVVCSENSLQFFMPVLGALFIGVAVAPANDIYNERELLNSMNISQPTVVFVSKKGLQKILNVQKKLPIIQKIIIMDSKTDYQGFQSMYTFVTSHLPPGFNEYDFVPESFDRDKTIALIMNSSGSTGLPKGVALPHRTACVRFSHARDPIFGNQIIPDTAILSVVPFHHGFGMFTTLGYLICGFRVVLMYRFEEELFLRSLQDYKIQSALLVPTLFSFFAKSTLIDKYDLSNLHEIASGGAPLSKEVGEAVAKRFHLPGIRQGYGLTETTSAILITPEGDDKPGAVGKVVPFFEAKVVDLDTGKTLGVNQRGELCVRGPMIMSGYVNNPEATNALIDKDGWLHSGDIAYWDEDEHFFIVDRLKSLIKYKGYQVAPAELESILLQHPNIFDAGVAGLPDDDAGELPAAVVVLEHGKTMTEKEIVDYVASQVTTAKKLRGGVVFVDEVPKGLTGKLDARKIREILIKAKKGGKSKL

IC50 [1]: 22.6 µM (active)
IC50 (Estrogen receptor beta [2]): > 50 µM (not active)
IC50 (Estrogen receptor beta [3]): > 50 µM (not active)
IC50 (Protein Tat): > 100 µM (active)
Compound: Cc1ccc(-c2nc3s/c(=C\c4ccco4)c(=O)n3n2)cc1

Compound: CCC(CC)=N/N=C/c1c(O)n(CC)c2cc(C3=NNC(=O)CC3)ccc12
EC50 [4]: > 112 µM (not active)
EC50 [5]: 2.71 µM (active)
EC50 [6]: < 0.3 µM (active)

IC50 (Heat shock protein HSP90): 13.4314 µM
AC50 (Cytochrome P450 3A4): 6.31 µM (inconclusive)
Compound: CN(c1ccccc1)c1ccc(/C=c2\s/c(=C(/C#N)C(=O)C(C)(C)C)n(Cc3ccco3)c2=O)cc1

Compound: COc1ccccc1NC(=O)N1C[C@@H]2N[C@H](C1)[C@@H]2c1ccc(/C=C/c2ccccc2)cc1
AC50 [7]: 8.73 µM (active)
AC50 [8]: 1.96 µM (active)
AC50 [9]: 9.74 µM (active)

Compound: CCC(=O)N1CCC2(CC1)CN(C(C)=O)[C@@H](CO)c1[nH]c3cc(OC)ccc3c12
AC50 [10]: 20.1 µM (active)

Compound: COc1ccc(S(=O)(=O)N(C)C[C@@H]2OCc3ccccc3-c3c(n(C)c4ccccc34)C(=O)N([C@@H](C)CO)C[C@@H]2C)cc1
AC50 [11]: 0.126 µM (active)
AC50 [12]: 84.3 µM (active)
AC50 [8]: 0.689 µM (active)
AC50 [13]: 0.853 µM (active)
AC50 [14]: 0.0794 µM (active)
AC50 [15]: 0.115 µM (active)

Compound: Cc1cc(O)c(C(C)C)cc1Cl [CHLOROTHYMOL]
IC50 [16]: 14.1 µM (inactive)
IC50 [17]: 26.5 µM (inactive)
